Measurements: paper PMC5784824 (Journal of immunology (Baltimore, Md. : 1950), 2017)

Experiments:
hP2X4 = target: T1, hP2X4 (Homo sapiens, UniProt Q99571); assay: Fura-2 intracellular Ca2+ measurement in over-expressing […]1 cells; type: cell-based; conditions: agonist; pH 7.4; 1.5 mM CaCl2 buffer
T1 sequence (Q99571 1-388): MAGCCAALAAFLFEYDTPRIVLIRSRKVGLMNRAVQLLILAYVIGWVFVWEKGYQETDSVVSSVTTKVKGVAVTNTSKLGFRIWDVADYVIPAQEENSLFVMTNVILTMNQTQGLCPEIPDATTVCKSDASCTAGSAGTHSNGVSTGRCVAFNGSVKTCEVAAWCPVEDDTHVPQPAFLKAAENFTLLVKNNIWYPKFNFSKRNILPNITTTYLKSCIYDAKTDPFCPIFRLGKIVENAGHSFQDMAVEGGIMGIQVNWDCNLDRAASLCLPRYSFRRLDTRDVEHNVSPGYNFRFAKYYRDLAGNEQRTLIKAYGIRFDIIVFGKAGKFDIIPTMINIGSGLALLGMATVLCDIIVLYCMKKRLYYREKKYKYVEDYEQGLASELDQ

hP2X7 = target: T2, hP2X7 (Homo sapiens, UniProt Q99572); assay: as above; type: cell-based; conditions: agonist; pH 7.4; 1.5 mM CaCl2 buffer
T2 sequence (Q99572 1-595): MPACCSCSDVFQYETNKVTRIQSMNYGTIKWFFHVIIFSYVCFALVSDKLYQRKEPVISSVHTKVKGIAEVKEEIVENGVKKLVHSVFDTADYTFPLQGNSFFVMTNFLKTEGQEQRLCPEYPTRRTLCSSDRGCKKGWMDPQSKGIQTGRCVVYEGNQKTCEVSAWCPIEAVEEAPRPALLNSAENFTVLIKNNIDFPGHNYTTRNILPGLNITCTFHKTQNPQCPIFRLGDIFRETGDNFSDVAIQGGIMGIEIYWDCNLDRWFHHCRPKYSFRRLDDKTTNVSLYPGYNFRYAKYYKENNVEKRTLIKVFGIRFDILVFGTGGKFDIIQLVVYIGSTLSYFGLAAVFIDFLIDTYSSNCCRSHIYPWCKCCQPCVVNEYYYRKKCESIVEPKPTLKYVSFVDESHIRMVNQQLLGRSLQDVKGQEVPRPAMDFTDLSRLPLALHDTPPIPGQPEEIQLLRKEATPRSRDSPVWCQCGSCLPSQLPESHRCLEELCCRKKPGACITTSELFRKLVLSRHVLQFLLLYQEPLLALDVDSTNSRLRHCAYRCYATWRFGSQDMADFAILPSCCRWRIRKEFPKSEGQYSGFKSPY

SMILES: Nc1ncnc2c1ncn2[C@@H]1O[C@H](COP(=O)(O)OP(=O)(O)OP(=O)(O)O)[C@@H](O)[C@H]1O [ATP]
- Ca2+ response (activation) at 100 μM ATP (hP2X4): in over-expressing cells illustrated maximal activation of P2X4 and no activation of P2X7
- Ca2+ response (no activation) at 100 μM ATP (hP2X7): in over-expressing cells illustrated maximal activation of P2X4 and no activation of P2X7
